Reference: patent US20130309380A1, “METHODS FOR PRESERVING FRESH PRODUCE” (NatureSeal, Inc., priority 2003, published 2013)

Tests used:
[1] = tested on: Red Delicious apples; experiment: Hardness of sliced Red Delicious apples measured with QTS25
Method: The firmness or hardness of the fruit is the force required for a probe to penetrate the fruit a given distance into the fruit. The firmness is determined using a Quality and Test System 25 and TA 40 probe from Stevens Company. The TA 40 probe a black acetate, 4.5 mm diameter, 20 mm long rod probe having a flat end. The following settings were employed in the QTS system: the test type is a compression test of one cycle, 0 second hold time, 0 second recovery, 5 g trigger point, 30 mm/min test speed, target unit distance, and a target value of 3 mm. The apple pieces were 1 cm thick.
Whole Red Delicious apples were rinsed with tap water, sanitized with a sodium hypochlorite solution containing 100 ppm chlorine, then cored and sliced. The apple slices were immersed in water for 0.5 to 2 minutes. Then the apple slices were dipped into produce preservative solution containing 4% ascorbic acid and 1.59% K2CO3 having a pH 5.69 for 1 minute. The slices were removed from the solution and drained for 1-2 minutes, sealed in polyethylene bags, and stored at 2-5° C. For controls, sliced apples either not treated or were dipped into either 4% ascorbic acid with 0.66% NaOH to adjust the pH to 4.45. For comparison, sliced apples were dipped into a solution containing 4% ascorbic acid and 1.22% Na2CO3 and having a pH of 5.58.
The apples were evaluated and scored on a scale of 0-10 at time intervals. A score of 10 means that the fruit's color and appearance is as good as fresh cut fruit. A score of 7 is the minimum acceptable appearance. Hardness was measured with QTS25.

[2] = tested on: Bramley apples; experiment: Water released by sliced Bramley apples
Method: (§1) The firmness of the produce in Example 11a were evaluated by bending produce samples. Appearance was evaluated by visual inspection. The moisture was evaluated by measuring the amount of water the produce released.
(§2) Whole Bramley apples free from blemishes or bruises, were rinsed with water, sanitized with a sodium hypochlorite solution having 100 parts per million available chlorine, for two minutes, then peeled, cored, and sliced. The sliced apples were dipped into a fresh produce preservative solution that contained 5.12% strontium ascorbate; the fresh produce preservative solution contained 4.12% ascorbic acid and 1.79% […], for about 30 to 60 seconds. The apples were then drained in a colander for one minute. The apple slices and the colander were placed in 500 micron plastic bags from SunSet Packaging, stored at 4° C. and evaluated several times over a 15 day period. Water which collected in the plastic bag was removed and weighed.
For comparison, similarly prepared apple slices were placed in one of several solutions that contained either: 4.3% ascorbic acid and 1.13% hydrated MgCO3, specifically 4MgCO3.Mg(OH)25H2O or a 5.0% w/w aqueous solution of calcium ascorbate dihydrate, having a pH of 7.2; or a 5.3% w/w solution, of 4.12% ascorbic acid and 1.17% calcium carbonate,; or 6% ascorbic acid having a pH of 2.3; or 48 g ascorbic acid, 48 g citric acid, 16 g CaCl2 and 48 g NaCl in 800 g water, with a pH of 1.2; or 6% w/w citric acid and 6% w/w ascorbic acid; or 4.64% sodium ascorbate having 4.13% ascorbic acid and 1.18% NaCo3. […]

[3] = tested on: Red Delicious apples; experiment: Evaluation of sliced Red Delicious apples (Examples 14 and 15, scores)
Method: The texture, flavor, and moistness of the fruit were evaluated by tasting fruit samples. The color and/or appearance was also evaluated by visual inspection. […] Then the apple slices were dipped for 1 minute into the following solutions: 3% ascorbic acid and 0.8% NH4Cl. For comparision, untreated slices were used as well as apple slices treated with 3% ascorbic acid or 2% ascorbic acid. The apples were removed, drained for 1-2 minutes, sealed in 2 mil, polyethylene bags, and stored at 2-5° C. Red Delicious apples were preserved with the fresh produce preservative as in Example 14a, except that the preservative solution contained 3.0% ascorbic acid and 0.8% CuSO4.

[4] = tested on: Bramley apples; experiment: Evaluation of sliced Bramley apples: appearance by visual inspection, firmness by bending
Method: as §1, §2
For comparison, similarly prepared apple slices were placed in one of several solutions that contained either: 4.3% ascorbic acid and 1.13% hydrated MgCO3, specifically 4MgCO3.Mg(OH)25H2O or a 5.0% w/w aqueous solution of calcium ascorbate dihydrate, having a pH of 7.2; or a 5.3% w/w solution, of 4.12% ascorbic acid and 1.17% calcium carbonate,; or 6% ascorbic acid having a pH of 2.3; or 48 g ascorbic acid, 48 g citric acid, 16 g CaCl2 and 48 g NaCl in 800 g water, with a pH of 1.2; or 6% w/w citric acid and 6% w/w ascorbic acid; or 4.64% sodium ascorbate having 4.13% ascorbic acid and 1.18% NaCo3.
Bramley apples were preserved with the fresh produce preservative as in Example 11a except that the preservative solution contained lithium ascorbate. The lithium ascorbate solution was prepared by adding 7.35 grams of lithium carbonate and 35 grams ascorbic acid to 800 grams water.
For comparison, apple slices were placed in one of several comparative solutions: a 5.0% w/w aqueous solution of calcium ascorbate dihydrate containing 42.5 grams of calcium ascorbate dihydrate and 800 grams water with a pH of 7; a 5.3% w/w solution of calcium ascorbate containing 44.94 grams of mixture of 9.95 grams calcium carbonate and 35 grams ascorbic acid in 800 grams water with a pH of 5.5; a comparative solution, containing 48 g ascorbic acid, 48 g citric acid, 16 g CaCl2, 48 g NaCl and 800 g water with a pH of 1.2; a comparative solution of sodium ascorbate containing 28.45 grams of sodium carbonate 35 grams ascorbic acid, 800 grams water having a pH of 6.8; a comparative solution of calcium ascorbate containing 8.75 grams of calcium carbonate, 35 grams ascorbic acid, and to 800 grams water; a comparative solution of calcium ascorbate containing 9.95 grams of calcium carbonate, 35 grams ascorbic acid, and 765 grams water; a comparative solution of magnesium ascorbate containing 9.66 grams of hydrated magnesium carbonate 4MgCO3.Mg(OH)25H2O, 35 grams ascorbic acid, 765 grams water, having a pH of 6.4; and a comparative solution of zinc ascorbate containing 35 grams ascorbic acid, 12.74 grams zinc carbonate and 765 grams water, with a pH of 5.5. The apple slices were evaluated on day five.

Compound: O=C1O[C@H]([C@@H](O)CO)C(O)=C1O [Ascorbic Acid, ascorbic acid]
- Hardness ([1]; 0 hour): 2083
- Hardness ([1]; 1 week at 2-5° C.): 1578
- Hardness ([1]; 2 week at 2-5° C.): 1072
- Water Released ([2]; 4 hr at 4° C.): 6.78 g
- Water Released ([2]; 28 hr at 4° C.): 5.34 g
- Water Released ([2]; 52 hr at 4° C.): 4.19 g
- Water Released ([2]; 94 hr at 4° C.): 2.94 g
- Water Released ([2]; 191 hr at 4° C.): 2.63 g
- color/appearance score ([3]; 1 hour, scale to 10 (Table 15)): 10
- color/appearance score ([3]; 1 hour, scale to 10 (Table 16)): 10
- color/appearance score ([3]; 24 hours, scale to 10 (Table 15), listed as 2% Ascorbic Acid Control, 2% Ascorbic Acid control dip): 5.33
- color/appearance score ([3]; 24 hours, scale to 10 (Table 15), listed as 3% Ascorbic Acid Control, 3% Ascorbic Acid control dip): 6
- color/appearance score ([3]; 24 hours, scale to 10 (Table 16), listed as 2% Ascorbic Acid Control, 2% Ascorbic Acid control): 5
- color/appearance score ([3]; 24 hours, scale to 10 (Table 16), listed as 3% Ascorbic Acid Control, 3% Ascorbic Acid control): 6
- color/appearance score ([3]; Day 3, scale to 10 (Table 15), listed as 2% Ascorbic Acid Control, 2% Ascorbic Acid control dip): 5
- color/appearance score ([3]; Day 3, scale to 10 (Table 15), listed as 3% Ascorbic Acid Control, 3% Ascorbic Acid control dip): 6
- color/appearance score ([3]; Day 3, scale to 10 (Table 16), listed as 2% Ascorbic Acid Control, 2% Ascorbic Acid control): 5
- color/appearance score ([3]; Day 3, scale to 10 (Table 16), listed as 3% Ascorbic Acid Control, 3% Ascorbic Acid control): 6
- color/appearance score ([3]; Day 4, scale to 10 (Table 15), listed as 2% Ascorbic Acid Control, 2% Ascorbic Acid control dip): 6
- color/appearance score ([3]; Day 4, scale to 10 (Table 15), listed as 3% Ascorbic Acid Control, 3% Ascorbic Acid control dip): 4
- color/appearance score ([3]; Day 5, scale to 10 (Table 15), listed as 2% Ascorbic Acid Control, 2% Ascorbic Acid control dip): 6
- color/appearance score ([3]; Day 5, scale to 10 (Table 15), listed as 3% Ascorbic Acid Control, 3% Ascorbic Acid control dip): 4
- color/appearance score ([3]; Day 6, scale to 10 (Table 15), listed as 2% Ascorbic Acid Control, 2% Ascorbic Acid control dip): 6
- color/appearance score ([3]; Day 6, scale to 10 (Table 15), listed as 3% Ascorbic Acid Control, 3% Ascorbic Acid control dip): 4
- Texture ([4]; 28 hr at 4° C.): Firm
- Texture ([4]; 52 hr at 4° C.): Firm
- Appearance (visual inspection) ([4]; 191 hr at 4° C.): brown
- Texture ([4]; 191 hr at 4° C.): soft
